Results from the Deep4Chem optical property database.
“And” between values parts separate entries of the source, which are not always exact repeats. Equal values may be shown once.

Experiment: solvent given as SMILES

Compound CCN(CC)c1ccc2c(-c3ccccc3C(=O)O)c3c([o+]c2c1)/C(=C/c1ccc(N(C)C)cc1)CCC3 has a fluorescence lifetime (in ClCCl) of 0.25 ns.
With O=[N+]([O-])c1ccc([N+]2=Cc3ccc4ccccc4c3O[B-]2(F)F)cc1 the fluorescence lifetime (in ClCCl) was 7.6 ns.
Compound O=c1cc[nH]c(=O)[nH]1 has a fluorescence lifetime (in CC#N) of 0.0001 ns.
For F[B-]1(F)n2c(-c3cccs3)cc(-c3cccs3)c2N=C2C(c3cccs3)=CC(c3cccs3)=[N+]21, the fluorescence lifetime (in C1CCOC1) was 1.95 ns, the fluorescence lifetime (in CC#N) was 2.23 ns and the fluorescence lifetime (in CS(C)=O) was 2.31 ns. It also gave a fluorescence lifetime (in Cc1ccccc1) of 2.21 ns and a fluorescence lifetime (in ClCCl) of 2.36 ns.
CC(C)(C)c1ccc2c(c1)c1cc(C(C)(C)C)ccc1n2-c1ccc(C#Cc2ccc(C=C(C#N)C#N)cc2)cc1 gave a fluorescence lifetime (in ClCCl) of 4.2 ns.
Compound CCC1=C(C)C2=Cc3cc(I)c(I)n3[B-](F)(F)[N+]2=C1C has a fluorescence lifetime (in C1CCCCC1) of 1.04 ns, a fluorescence lifetime (in CC(C)=O) of 0.753 ns and a fluorescence lifetime (in CCO) of 0.943 ns. For the same compound, the fluorescence lifetime (in CCOC(C)=O) was 0.836 ns, the fluorescence lifetime (in CO) was 0.848 ns and the fluorescence lifetime (in OCC(F)(F)F) was 0.676 ns.
Compound COc1ccc2c(c1)N(c1ccccc1-c1ccccc1)c1cc3c(cc1=N2)Oc1c(cc(C(C)(C)C)cc1C(C)(C)C)N=3 has a fluorescence lifetime (in CCCCCC) of 0.45 ns.
For c1ccc2c(-c3cc(-c4nccs4)nc(-c4nccs4)c3)c3ccccc3cc2c1, the fluorescence lifetime (in CC#N) was 2.32 ns, the fluorescence lifetime (in CCCCCC) was 3.31 ns and the fluorescence lifetime (in CO) was 2.5 ns. The fluorescence lifetime (in ClC(Cl)Cl) was 2.34 ns.
Compound C[Si]1(C)c2ccccc2-c2ccccc21 has a fluorescence lifetime (in ClCCl) of 0.15 ns.
With Cc1ccc(-c2ccc(/C=C/c3ccc(N(C)C)cc3)cn2)nc1 the fluorescence lifetime (in CC#N) was 1.22 ns.
In the case of c1ccc2ccccc2c1, the fluorescence lifetime (in C1CCCCC1) is reported as 168 ns and 96 ns.
With Cc1ccc2c(c1)C1(c3ccccc3Oc3ccccc31)c1cc(C)ccc1N2c1ccc(-c2ncccn2)cc1 the fluorescence lifetime (in O=P(c1ccccc1)(c1ccccc1)c1ccc2oc3ccc(P(=O)(c4ccccc4)c4ccccc4)cc3c2c1) was 11 ns.
